According to ChEMBL document CHEMBL1143055, “2,3,5-Substituted tetrahydrofurans as cancer chemopreventives. Part 1: synthesis and anti-cancer activities of 5-hydroxymethyl-2,3-diaryl-tetrahydro-furan-3-ols” (2007):

Tests used:
[1] = system: SNB-75; experiment: Antitumor activity against human SNB75 cells; format: functional
[2] = system: HOP-62; experiment: Antitumor activity against human HOP62 cells; format: functional
[3] = system: CCRF-CEM; experiment: Antitumor activity against human CCRF-CEM cells; format: functional
[4] = system: EKVX; experiment: Antitumor activity against human EKVX cells; format: functional
[5] = system: SK-OV-3; experiment: Antitumor activity against human SK-OV-3 cells; format: functional
[6] = system: HOP-92; experiment: Antitumor activity against human HOP92 cells; format: functional
[7] = system: A549; experiment: Antitumor activity against human A549 cells; format: functional
[8] = system: NCI-H23; experiment: Antitumor activity against human NCI-H23 cells; format: functional
[9] = system: SNB-19; experiment: Antitumor activity against human SNB19 cells; format: functional
[10] = system: NCI-H460; experiment: Antitumor activity against human NCI-H460 cells; format: functional
[11] = system: SF-268; experiment: Antitumor activity against human SF268 cells; format: functional
[12] = system: SK-MEL-28; experiment: Antitumor activity against human SK-MEL-28 cells; format: functional
[13] = system: RXF 393; experiment: Antitumor activity against human RXF393 cells; format: functional
[14] = system: SW-620; experiment: Antitumor activity against human SW620 cells; format: functional
[15] = system: TK-10; experiment: Antitumor activity against human TK10 cells; format: functional
[16] = system: HCT-15; experiment: Antitumor activity against human HCT15 cells; format: functional
[17] = system: OVCAR-3; experiment: Antitumor activity against human OVCAR-3 cells; format: functional
[18] = Antitumor activity against human […] cells; format: functional
[19] = system: HCC 2998; experiment: Antitumor activity against human HCC2998 cells; format: functional
[20] = system: LOX IMVI; experiment: Antitumor activity against human LOX IMVI cells; format: functional
[21] = Antitumor activity against human HL60 (TB) cells; format: functional, HL-60(TB); settings: HL-60
[22] = system: UACC-62; experiment: Antitumor activity against human UACC62 cells; format: functional
[23] = Antitumor activity against human HS 578T cells; format: functional
[24] = system: PC-3; experiment: Antitumor activity against human PC3 cells; format: functional
[25] = system: SF-539; experiment: Antitumor activity against human SF539 cells; format: functional
[26] = system: 786-0; experiment: Antitumor activity against human 786-0 cells; format: functional
[27] = system: NCI/ADR-RES; experiment: Antitumor activity against human NCI/ADR-RES cells; format: functional
[28] = system: SK-MEL-5; experiment: Antitumor activity against human SK-MEL-5 cells; format: functional
[29] = system: SN12C; experiment: Antitumor activity against human SN12C cells; format: functional
[30] = system: ACHN; experiment: Antitumor activity against human ACHN cells; format: functional
[31] = system: OVCAR-5; experiment: Antitumor activity against human OVCAR5 cells; format: functional
[32] = system: DU-145; experiment: Antitumor activity against human DU145 cells; format: functional
[33] = system: KM12; experiment: Antitumor activity against human KM12 cells; format: functional
[34] = system: NCI-H522; experiment: Antitumor activity against human NCI-H522 cells; format: functional
[35] = system: SR; experiment: Antitumor activity against human SR cells; format: functional
[36] = system: OVCAR-8; experiment: Antitumor activity against human OVCAR8 cells; format: functional
[37] = system: UO-31; experiment: Antitumor activity against human UO31 cells; format: functional
[38] = system: OVCAR-4; experiment: Antitumor activity against human OVCAR4 cells; format: functional
[39] = system: MCF7; experiment: Antitumor activity against human MCF7 cells; format: functional
[40] = system: HCT-116; experiment: Antitumor activity against human HCT116 cells; format: functional
[41] = system: K562; experiment: Antitumor activity against human K562 cells; format: functional
[42] = system: IGROV-1; experiment: Antitumor activity against human IGROV1 cells; format: functional
[43] = system: CAKI-1; experiment: Antitumor activity against human CAKI-1 cells; format: functional
[44] = system: BT-549; experiment: Antitumor activity against human BT549 cells; format: functional
[45] = system: MDA-MB-435; experiment: Antitumor activity against human MDA-MB-435 cells; format: functional
[46] = system: U-251; experiment: Antitumor activity against human U251 cells; format: functional
[47] = system: HT-29; experiment: Antitumor activity against human HT29 cells; format: functional
[48] = system: MOLT-4; experiment: Antitumor activity against human MOLT4 cells; format: functional
[49] = system: UACC-257; experiment: Antitumor activity against human UACC257 cells; format: functional
[50] = system: COLO 205; experiment: Antitumor activity against human COLO205 cells; format: functional
[51] = system: SF-295; experiment: Antitumor activity against human SF295 cells; format: functional
[52] = Antitumor activity against human NCI-H322 cells; format: functional
[53] = system: RPMI-8226; experiment: Antitumor activity against human RPMI8226 cells; format: functional
[54] = system: Malme-3M; experiment: Antitumor activity against human MALME-3M cells; format: functional
[55] = system: A498; experiment: Antitumor activity against human A498 cells; format: functional
[56] = system: NCI-H226; experiment: Antitumor activity against human NCI-H226 cells; format: functional
[57] = system: HOP-92; experiment: Growth inhibition of human HOP92 cells at 10 nM; format: functional
[58] = Growth inhibition of human HS 578T cells at 0.1 uM; format: functional

For `O=c1[nH]cc(F)c(=O)[nH]1` [FLUOROURACIL], the GI50 [1] was 200 µM, the GI50 [2] was 20 µM and the GI50 [3] was 31.6 µM. For the same compound, the GI50 [4] was 316 µM, the GI50 [5] was 158 µM and the GI50 [6] was 158 µM. For the same compound, the GI50 [7] was 2 µM, the GI50 [8] was 12.6 µM and the GI50 [9] was 126 µM. It also gave a GI50 [10] of 1 µM, a GI50 [11] of 50.1 µM and a GI50 [12] of 50.1 µM. It also gave a GI50 [13] of 50.1 µM, a GI50 [14] of 25.1 µM and a GI50 [15] of 126 µM. For the same compound, the GI50 [16] was 6.31 µM, the GI50 [17] was 25.1 µM and the GI50 [18] was 501 µM. For the same compound, the GI50 [19] was 1.58 µM, the GI50 [20] was 6.31 µM and the GI50 [21] was 20 µM. The GI50 [22] was 12.6 µM, the GI50 [23] was 251 µM and the GI50 [24] was 50.1 µM. It also gave a GI50 [25] of 1.26 µM, a GI50 [26] of 12.6 µM and a GI50 [27] of 39.8 µM. The GI50 [28] was 12.6 µM, the GI50 [29] was 25.1 µM and the GI50 [30] was 10 µM. The GI50 [31] was 158 µM, the GI50 [32] was 10 µM and the GI50 [33] was 10 µM. The GI50 [34] was 39.8 µM, the GI50 [35] was 3.98 µM and the GI50 [36] was 20 µM. It also gave a GI50 [37] of 5.01 µM, a GI50 [38] of 63.1 µM and a GI50 [39] of 1.58 µM. It also gave a GI50 [40] of 0.398 µM, a GI50 [41] of 20 µM and a GI50 [42] of 12.6 µM. The GI50 [43] was 3.98 µM, the GI50 [44] was 100 µM and the GI50 [45] was 10 µM. For the same compound, the GI50 [46] was 39.8 µM, the GI50 [47] was 6.31 µM and the GI50 [48] was 12.6 µM. The GI50 [49] was 100 µM, the GI50 [50] was 6.31 µM and the GI50 [51] was 50.1 µM. For the same compound, the GI50 [52] was 20 µM, the GI50 [53] was 5.01 µM and the GI50 [54] was 20 µM. The GI50 [55] was 10 µM and the GI50 [56] was 251 µM.

In the case of `OC[C@H]1C[C@](O)(c2ccc(F)cc2)[C@@H](c2ccc(F)cc2)O1` (relative stereo), the GI50 [1] is reported as > 100 µM, the GI50 [2] is reported as > 100 µM and the GI50 [3] is reported as > 100 µM. The GI50 [4] was > 100 µM, the GI50 [5] was > 100 µM and the GI50 [6] was 66.1 µM. The GI50 [7] was > 100 µM, the GI50 [8] was > 100 µM and the GI50 [9] was > 100 µM. The GI50 [10] was > 100 µM, the inhibition at 0.01 µM [57] was 13% and the GI50 [11] was > 100 µM. For the same compound, the GI50 [12] was > 100 µM, the GI50 [13] was 52.5 µM and the GI50 [14] was > 100 µM. For the same compound, the GI50 [15] was > 100 µM, the GI50 [16] was > 100 µM and the GI50 [17] was > 100 µM. For the same compound, the GI50 [18] was > 100 µM, the GI50 [19] was > 100 µM and the GI50 [20] was > 100 µM. The GI50 [21] was > 100 µM, the GI50 [22] was > 100 µM and the GI50 [23] was 44.7 µM. For the same compound, the GI50 [24] was > 100 µM, the GI50 [25] was > 100 µM and the GI50 [26] was > 100 µM. The GI50 [27] was > 100 µM, the GI50 [28] was > 100 µM and the GI50 [29] was > 100 µM. The GI50 [30] was > 100 µM, the GI50 [31] was > 100 µM and the GI50 [32] was > 100 µM. The GI50 [33] was > 100 µM, the GI50 [34] was > 100 µM and the GI50 [35] was > 100 µM. The GI50 [36] was > 100 µM, the GI50 [37] was > 100 µM and the GI50 [38] was > 100 µM. The GI50 [39] was > 100 µM, the GI50 [40] was 91.2 µM and the GI50 [41] was > 100 µM. For the same compound, the GI50 [42] was 58.9 µM, the GI50 [43] was > 100 µM and the GI50 [44] was > 100 µM. For the same compound, the GI50 [45] was > 100 µM, the GI50 [46] was > 100 µM and the inhibition at 0.1 µM [58] was 29%. For the same compound, the GI50 [47] was > 100 µM, the GI50 [48] was 100 µM and the GI50 [49] was > 100 µM. For the same compound, the GI50 [50] was > 100 µM, the GI50 [51] was > 100 µM and the GI50 [52] was > 100 µM. For the same compound, the GI50 [53] was > 100 µM, the GI50 [54] was > 100 µM and the GI50 [55] was > 100 µM. For the same compound, the GI50 [56] was > 100 µM.
